Laboratory results taken from US20140161767A1, “FOLLICLE-STIMULATING HORMONE (FSH)/LYTIC DOMAIN FUSION CONSTRUCTS AND METHODS OF MAKING AND USING SAME” (BOARD OF SUPERVISORS OF LOUISIANA STATE UNIVERSITY AND …, priority 2012, published 2014).

Tests used:
[1] = tested on: Panc-1; assay: Cell viability after 4 hours (Cell Titer Glo), Panc-1; assay type: cell-based, human; conditions: 4 h incubation; read-out: Activities [μM] Panc1 (p18)
Procedure: (§1) Human ovarian cancer cell lines OVCAR-3 (p 41), SKOV-3 (p 35) and the human uterine sarcoma cell line MES-SA-Dx5 (p 61) (multi-drug resistant clone), the human pancreatic cancer cell line Panc-1 (passage number 18), and human triple negative breast cancer cell line MDA-MB-231 (passage number 47) were grown in ATCC recommended medium, 10% fetal bovine serum, 100 IU/ml penicillin, 100 microg/ml streptomycin. Cells were typically seeded (2,000 cells per well) into 96 well plates and media was replaced after 48 hours of incubation. […] Each Phor-18-hFSH-β81-89 conjugate provided in lyophilized form was dissolved in saline and added to cells. The duration of incubation was 4 hours at 37° C. Cell viability was assessed after 4 hours using a luminometric assays (Promega, Cell Titer Glo, G755B, lot #00000031421). Controls contained saline or 0.1% triton as reference for 0 and 100% cell death, respectively.
(§2) Data were processed and analyzed using GraphPad Prism version 5.00 for Windows, GraphPad Software, San Diego Calif. USA, www.graphpad.com”. Statistical analysis for significance was determined by a two-tailed Student's T-test. Each study was conducted to achieve an N of at least 6.
(§3) In vitro activities were expressed as IC50 values for each cell line, time point and compound tested that were calculated using the Hill equation (Graph Pad Prizm software).

[2] = tested on: SKOV-3; assay: Cell viability after 4 hours (Cell Titer Glo), SKOV-3; assay type: cell-based, human; conditions: 4 h incubation; read-out: Activities [μM] SKOV-3 (p35)
Procedure: as §1, §2, §3

[3] = tested on: MES-SA-Dx5; assay: Cell viability after 4 hours (Cell Titer Glo), MES-SA-Dx5; assay type: cell-based, human; conditions: 4 h incubation; read-out: Activities [μM] MES-SA-Dx5 (p61)
Procedure: as §1, §2, §3

[4] = tested on: MDA-MB-435S.luc xenograft; assay: Mouse xenograft model of breast cancer, βCG fusion constructs; assay type: in vivo, mice; conditions: weekly bolus injections, days 13, 19, 25
Procedure: This example describes in vivo studies in a mouse xenograft model of breast cancer with various types and doses of βCG- and LHRH-fusion constructs.
Female Nu/Nu mice were injected subcutaneously with a MDA-MB-435S.luc/Matrigel HC suspension (1×10^6 cells). In brief, treatment started on day 13 after tumor cell injection and continued on day 19 and 25. […] The doses for weekly injections were 5, 1 and 0.01 mg/kg body weight, given as a bolus single injection.
The effect of cytolytic peptide injections on the primary tumors is illustrated in FIG. 8. In brief, the FIGS. 8A-8C show tumor volume during the course of the study for each individual peptide. FIGS. 8D-8G show tumor characteristics at necropsy: tumor volume (D), tumor weight (E), live tumor cells (F), tumor conditions (G).
Treatment efficacy was calculated as difference between measurements at the beginning of treatment compared to the measurement at the end of study (FIG. 8H-8I). […] Viability of cells in the tumors was determined at the end of the study when tumors were measured for luciferase activity.

[5] = tested on: SKOV-3 cells; assay type: cell-based, human; conditions: SKOV-3, 24 hours incubation; read-out: IC50 (maximal efficacy)
Source text: (§4) Membranes of non-cancerous cell lines are neutral and are resistant to cytolytic peptides, in contrast to cancer cell lines, which have a high phosphatidic acid content in their outer membrane.
(§5) The breast cancer cell lines studied were MDA-MB-4355 (estrogen receptor alpha negative), MCF-7 and T47D (estrogen receptor alpha positive), ovarian cancer cell lines (OVCAR-3 and SKOV-3), prostate cancer (LNCaP), the non-malignant breast epithelial cell line MCF-10A and the mouse fibroblast cell line NIH:3T3.
(§6) Cells were seeded into 96 well plates at a densitiy of 10,000 cells/well. […] Controls contained USP saline or 0.1% TritonX-100™ as reference for 0 and 100% cell death, respectively. […] Cell viability was assessed through formazan conversion assay (MTT assay, (CellTiter 96 Aqueous One, Promega # G3582). Formazan conversion was determined using a BioRad Benchmark Plus microplate spectrophotometer dual wavelengths at 490/630 nm at room temperature).
(§7) Data were calculated as fraction of absorption in TritonX-100™ containing wells representing 100% cell death versus 0% cell death in saline containing wells. Cytotoxicity was determined as IC50 using GraphPad Prism version 5.01 for Windows, GraphPad Software, San Diego Calif. […] 4 wells of each individual set of two 96 well plates were compared and analyzed. Statistical analysis for significance was determined by a two-tailed Student's T-test.

[6] = tested on: OVCAR-3 cells; assay type: cell-based, human; conditions: OVCAR-3 (p47), values listed with increasing incubation time, times not stated
Source text: as §4, §5, §6, §7

[7] = tested on: MDA-MB-435S.luc cells; assay: Cell toxicity screening (MTT assay) in MDA-MB-435S.luc breast cancer cells; assay type: cell-based, human
Source text: This example describes screening for cell toxicity (IC50) and hemolytic activity using a human breast cancer cell line.
Eighteen βCG-ala and eight LHRH conjugated fusion constructs were studied and compared to Phor21-βCG-ala and unconjugated Phor21 and Phor 18 (338913)=CLIP71 peptides. The human breast cancer cell line MDA-MB-435S.luc, which over expresses chorionic gonadotrophin (CG) and luteinizing hormone-releasing hormone (LHRH) receptors, was used to screen at passage numbers 248-252. The MDA-MB-435S.luc cell line was constructed from the MDA-MB-435S cell line obtained from the American Type Cell Culture Collection by stable transfection with the plasmid PRC/CMV-luc containing the Photinus pyralis luciferase gene and an […] by lipofection. The stably transfected cell line was selected using G418 and the clones with the highest expression for the luciferase gene were tested for their LH and LHRH receptor expression.
MDA-MB-435S.luc cells were grown in Leibovitz's L 15 medium, 10% fetal bovine serum, 0.01 mg/ml bovine insulin, 100 IU/ml penicillin, 100 microg/ml streptomycin. The cells were cultured in tight closed flasks. […]
Data were processed and analyzed using Graph Pad Prizm 4™ software (Graph Pad Prizm, Inc). Statistical analysis for significance was determined by a two-tailed Student's T-test. […]

Q: Which results are given for KFAKFAK KFAKFAK KFAK [Phor18]?
A: IC50 [1]: 18.9 ± 0.2 µM; IC50 [2]: 21.7 ± 3.6 µM; IC50 [3]: 28.1 ± 2.5 µM; Tumor volume compared to saline controls [4]: ineffective

Q: Which IC50 [5] does the source give for “KFAKFAKKFAKFAKKFAKQHWSYGLRPG [Phor18-LHRH]” here?
A: 11.5 µM

Q: What about the IC50 [6] of the same substance?
A: 0.5 µM

Q: What about the “fold more potent (toxic) than Phor21-βCG-ala” value [7] of the same substance?
A: 2 fold
